Results reported in PMC10458458, “Characterization of Anticancer Effects of the Analogs of DJ4, a Novel Selective Inhibitor of ROCK and MRCK Kinases” (Pharmaceuticals, 2023).

Tests used:
Experiment in all cases: NCI-60 screen (SRB)
Format in all cases: cell-based, human
A549/ATCC = A549/ATCC (Non-Small Cell Lung Cancer), 10 µM, 48 h; negative = cell death vs time zero
Description: (§1) The selected active compounds were screened at NCI, as a part of In Vitro Cell Line Screening Project (IVCLSP), for their effect on cell growth in 60 different cancer cell lines. The 60 human cancer cell line panel included leukemia, melanoma, non-small cell lung cancer, colon, central nervous system (CNS), ovarian, renal, prostate, and breast cancer cell lines. The detailed procedure and applications of NCI-60 cell line screening can be found at https://dtp.cancer.gov/discovery_development/nci-60/default.htm (accessed on 9 January 2023). Briefly, cells were plated in 96-well plates and incubated for 24 h. One set of cells was fixed with trichloroacetic acid at time 0 h (Tz), and SRB (sulphorhodamine B) assays were performed to quantify the cells. The remaining set of cells were treated with 10 µM single concentration of each compound and incubated for 48 h (Te) after which the cells were fixed, and the SRB assays were performed. Data are presented as percent growth relative to the control as 100% according to the following calculations:
(§2) When Te >/= Tz. Growth(%)=Te−Tz/C−Tz∗100 and when Te < Tz. (1) Growth(%)=Te−Tz/Tz∗100
(§3) Values between 0–100 indicate cell growth, zero (0) indicates no cell growth, values < 0 indicate cell death.

ACHN = ACHN (Renal Cancer), 10 µM, 48 h; negative = cell death vs time zero
Description: as §1, §2, §3

BT-549 = BT-549 (Breast Cancer), 10 µM, 48 h; negative = cell death vs time zero
Description: as §1, §2, §3

CAKI-1 = CAKI-1 (Renal Cancer), 10 µM, 48 h; negative = cell death vs time zero
Description: as §1, §2, §3

CCRF-CEM = CCRF-CEM (Leukemia), 10 µM, 48 h; negative = cell death vs time zero
Description: as §1, §2, §3

EKVX = EKVX (Non-Small Cell Lung Cancer), 10 µM, 48 h; negative = cell death vs time zero
Description: as §1, §2, §3

HCC-2998 = conditions: for percent cell growth: HCC-2998 (Colon Cancer), negative = cell death vs time zero
Description: as §1, §2, §3

HS 578T = HS 578T (Breast Cancer), 10 µM, 48 h; negative = cell death vs time zero
Description: as §1, §2, §3

HT29 = HT29 (Colon Cancer), 10 µM, 48 h; negative = cell death vs time zero
Description: as §1, §2, §3

KM12 = KM12 (Colon Cancer), 10 µM, 48 h; negative = cell death vs time zero
Description: as §1, §2, §3

LOX IMVI = LOX IMVI (Melanoma), 10 µM, 48 h; negative = cell death vs time zero
Description: as §1, §2, §3

M14 = M14 (Melanoma), 10 µM, 48 h; negative = cell death vs time zero
Description: as §1, §2, §3

MCF7 = MCF7 (Breast Cancer), 10 µM, 48 h; negative = cell death vs time zero
Description: as §1, §2, §3

MDA-MB-231 = MDA-MB-231 (Breast Cancer), 10 µM, 48 h; negative = cell death vs time zero
Description: as §1, §2, §3

MDA-MB-468 = MDA-MB-468 (Breast Cancer), 10 µM, 48 h; negative = cell death vs time zero
Description: as §1, §2, §3

MOLT-4 = MOLT-4 (Leukemia), 10 µM, 48 h; negative = cell death vs time zero
Description: as §1, §2, §3

NCI-H226 = NCI-H226 (Non-Small Cell Lung Cancer), 10 µM, 48 h; negative = cell death vs time zero
Description: as §1, §2, §3

OVCAR-3 = OVCAR-3 (Ovarian Cancer), 10 µM, 48 h; negative = cell death vs time zero
Description: as §1, §2, §3

OVCAR-4 = OVCAR-4 (Ovarian Cancer), 10 µM, 48 h; negative = cell death vs time zero
Description: as §1, §2, §3

PC-3 = PC-3 (Prostate Cancer), 10 µM, 48 h; negative = cell death vs time zero
Description: as §1, §2, §3

SF-295 = SF-295 (CNS Cancer), 10 µM, 48 h; negative = cell death vs time zero
Description: as §1, §2, §3

SK-MEL-2 = SK-MEL-2 (Melanoma), 10 µM, 48 h; negative = cell death vs time zero
Description: as §1, §2, §3

SK-OV-3 = SK-OV-3 (Ovarian Cancer), 10 µM, 48 h; negative = cell death vs time zero
Description: as §1, §2, §3

SW-620 = SW-620 (Colon Cancer), 10 µM, 48 h; negative = cell death vs time zero
Description: as §1, §2, §3

T-47D = T-47D (Breast Cancer), 10 µM, 48 h; negative = cell death vs time zero
Description: as §1, §2, §3

U251 = U251 (CNS Cancer), 10 µM, 48 h; negative = cell death vs time zero
Description: as §1, §2, §3

UACC-62 = UACC-62 (Melanoma), 10 µM, 48 h; negative = cell death vs time zero
Description: as §1, §2, §3

Row | SMILES | percent cell growth (A549/ATCC) [%] | percent cell growth (ACHN) [%] | percent cell growth (BT-549) [%] | percent cell growth (CAKI-1) [%] | percent cell growth (CCRF-CEM) [%] | percent cell growth (EKVX) [%] | percent cell growth (HCC-2998; 10 µM, 48 h) [%] | percent cell growth (HS 578T) [%] | percent cell growth (HT29) [%] | percent cell growth (KM12) [%] | percent cell growth (LOX IMVI) [%] | percent cell growth (M14) [%] | percent cell growth (MCF7) [%] | percent cell growth (MDA-MB-231) [%] | percent cell growth (MDA-MB-468) [%] | percent cell growth (MOLT-4) [%] | percent cell growth (NCI-H226) [%] | percent cell growth (OVCAR-3) [%] | percent cell growth (OVCAR-4) [%] | percent cell growth (PC-3) [%] | also measured
1 | Cl.O=C1NC(=NCCc2ccccc2)SC1=Cc1c[nH]c2ncccc12 (mixture of isomers) [DJ4-HCl] | 8.1 | −12.0 | 5.3 | 54.8 | 5.5 | 40.9 | 66.2 | 8.8 | 27.8 | 9.3 | 8.3 | 31.7 | 2.0 | 25.9 | −2.1 | 8.6 | 22.4 | 3.4 | 32.3 | 19.2 | percent cell growth (SF-295): 18.7%; percent cell growth (SK-MEL-2): −4.6%; percent cell growth (SK-OV-3): 2.1%; percent cell growth (SW-620): 7.8%; percent cell growth (T-47D): −1.3%; percent cell growth (U251): 7.6%; percent cell growth (UACC-62): −1.3%
2 | O=C1N/C(=N\CCc2ccccc2)S/C1=C/c1c[nH]c2ncccc12 [DJ4] | 19.1 | 16.0 | −7.9 | 37.4 | 9.9 | 46.0 | 53.9 | 8.8 | 30.6 | 13.1 | 16.3 | 29.9 | 4.0 | 25.5 | −14.5 | 11.4 | 3.3 | 5.6 | 23.8 | 25.9 | IC50 (HCC-2998; Homo sapiens, HCC-2998 colon cancer cells, NCI-60 screen): > 10 µM; percent cell growth (SF-295): 22.6%; percent cell growth (SK-MEL-2): 28.8%; percent cell growth (SK-OV-3): 27.0%; percent cell growth (SW-620): 9.9%; percent cell growth (T-47D): 2.6%; percent cell growth (U251): 15.8%; percent cell growth (UACC-62): −1.4%
3 | C=CC/N=C1\NC(=O)/C(=C\c2c[nH]c3ncccc23)S1 [DJ-Allyl] | 13.2 | −1.2 | −29.5 | 30.2 | 7.1 | 30.5 | 44.6 | −15.0 | 26.4 | 7.9 | 0.6 | 24.5 | 3.5 | 19.8 | 1.0 | 5.8 | 10.7 | −7.0 | 34.7 | 12.6 | increase in cell number (HCC-2998; HCC-2998 (colon), 10 µM, 48 h): ~ 40%; percent cell growth (SF-295): 13.0%; percent cell growth (SK-MEL-2): −8.4%; percent cell growth (SK-OV-3): −7.0%; percent cell growth (SW-620): 7.4%; percent cell growth (T-47D): −8.7%; percent cell growth (U251): 0.8%; percent cell growth (UACC-62): 9.8%
4 | CC/N=C1\NC(=O)/C(=C\c2c[nH]c3ncccc23)S1 [DJE4] | 11.1 | 0.7 | −50.4 | 20.6 | 3.0 | 14.1 | 10.2 | −15.1 | 4.3 | 6.2 | 1.8 | 0.7 | 4.0 | 10.7 | −34.7 | −6.0 | 10.8 | −2.1 | 19.5 | 2.3 | percent cell growth (SF-295): 5.0%; percent cell growth (SK-MEL-2): −48.7%; percent cell growth (SK-OV-3): −10.3%; percent cell growth (SW-620): 6.5%; percent cell growth (T-47D): −9.7%; percent cell growth (U251): −9.5%; percent cell growth (UACC-62): −16.0%
